Reference: patent US20230406865A1, “CRYSTAL FORM OF FREE BASE OF INHIBITOR CONTAINING BICYCLIC RING DERIVATIVE AND PREPARATION METHOD AND APPLICATION OF CRYSTAL FORM” (SHANGHAI HANSOH BIOMEDICAL CO., LTD., priority 2020, published 2023)
Blank lines part the entries; values can stand above or below the compound they belong to.

Tests used:
Ba/F3 KIF5B-RET cells = biological target: T1, Ba/F3 KIF5B-RET cells (Homo sapiens, UniProt P07949); assay: Inhibition of proliferation of Ba/F3 KIF5B-RET cells (CellTiter-Glo); format: cell-based; details: 72 to 144 hours
T1 construct: fused on or other part: P33176 (Kinesin-1 heavy chain)
T1 sequence (P07949 whole entry, change not shown, the tested form may be a part): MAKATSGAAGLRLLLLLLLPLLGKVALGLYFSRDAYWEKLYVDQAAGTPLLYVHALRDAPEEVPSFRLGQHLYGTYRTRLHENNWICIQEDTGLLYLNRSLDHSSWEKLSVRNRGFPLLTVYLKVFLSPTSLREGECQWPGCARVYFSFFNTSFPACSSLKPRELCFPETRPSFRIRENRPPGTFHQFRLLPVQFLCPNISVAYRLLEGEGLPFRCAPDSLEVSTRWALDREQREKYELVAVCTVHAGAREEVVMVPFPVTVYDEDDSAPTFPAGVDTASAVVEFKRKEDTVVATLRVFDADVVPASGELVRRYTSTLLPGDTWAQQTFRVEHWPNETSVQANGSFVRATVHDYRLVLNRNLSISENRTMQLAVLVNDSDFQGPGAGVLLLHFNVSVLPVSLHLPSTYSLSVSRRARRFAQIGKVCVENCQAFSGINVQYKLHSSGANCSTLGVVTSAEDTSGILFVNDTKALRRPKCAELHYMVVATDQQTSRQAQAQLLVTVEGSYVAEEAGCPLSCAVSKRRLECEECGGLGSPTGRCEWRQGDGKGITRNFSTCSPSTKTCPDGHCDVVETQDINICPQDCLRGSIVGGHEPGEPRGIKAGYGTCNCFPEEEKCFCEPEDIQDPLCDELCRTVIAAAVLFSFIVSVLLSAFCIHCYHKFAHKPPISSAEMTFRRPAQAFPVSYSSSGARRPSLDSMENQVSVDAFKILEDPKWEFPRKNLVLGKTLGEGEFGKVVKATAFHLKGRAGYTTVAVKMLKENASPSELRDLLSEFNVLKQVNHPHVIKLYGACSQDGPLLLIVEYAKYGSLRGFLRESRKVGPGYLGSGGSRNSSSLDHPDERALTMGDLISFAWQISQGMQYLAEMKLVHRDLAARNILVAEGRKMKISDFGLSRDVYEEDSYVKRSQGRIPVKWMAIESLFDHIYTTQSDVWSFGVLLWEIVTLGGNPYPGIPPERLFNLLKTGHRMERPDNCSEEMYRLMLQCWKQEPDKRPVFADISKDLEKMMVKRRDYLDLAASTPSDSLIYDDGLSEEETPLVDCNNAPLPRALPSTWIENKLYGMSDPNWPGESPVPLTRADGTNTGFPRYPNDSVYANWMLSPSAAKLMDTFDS
Method: When Ba/F3 KIF5B-RET cells were cultured to the appropriate cell density, cells were collected, and the cells were adjusted to the appropriate cell concentration using complete medium, and the cell suspension was spread in a 96-well plate, 90 μL per well, and placed in the wall of a 37° C., 5% CO2 incubator overnight; compound solutions of different concentrations were prepared using DMSO and culture medium; a solvent control was set, and the compound solution was added to a 96-well plate with […] at 37° C. in a 5% CO2 incubator for 72 to 144 hours, CellTiter-Glo solution was added thereto and mixed well by shaking, incubated for 10 minutes in the dark, and read by BioTek Synergy H1 microplate reader.
The IC50 values were obtained by using the luminescence signal values to calculate the inhibition rate, the concentrations and the inhibition rates were fitted to a nonlinear regression curve using Graphpad Prism software.

RET kinase = biological target: T2, RET kinase (Homo sapiens, UniProt P07949); assay: HTRF kinase activity inhibition, RET wild-type; format: biochemical; details: ATP at Km
T2 construct: purchased Carna 08-159
T2 sequence (P07949 29-1114): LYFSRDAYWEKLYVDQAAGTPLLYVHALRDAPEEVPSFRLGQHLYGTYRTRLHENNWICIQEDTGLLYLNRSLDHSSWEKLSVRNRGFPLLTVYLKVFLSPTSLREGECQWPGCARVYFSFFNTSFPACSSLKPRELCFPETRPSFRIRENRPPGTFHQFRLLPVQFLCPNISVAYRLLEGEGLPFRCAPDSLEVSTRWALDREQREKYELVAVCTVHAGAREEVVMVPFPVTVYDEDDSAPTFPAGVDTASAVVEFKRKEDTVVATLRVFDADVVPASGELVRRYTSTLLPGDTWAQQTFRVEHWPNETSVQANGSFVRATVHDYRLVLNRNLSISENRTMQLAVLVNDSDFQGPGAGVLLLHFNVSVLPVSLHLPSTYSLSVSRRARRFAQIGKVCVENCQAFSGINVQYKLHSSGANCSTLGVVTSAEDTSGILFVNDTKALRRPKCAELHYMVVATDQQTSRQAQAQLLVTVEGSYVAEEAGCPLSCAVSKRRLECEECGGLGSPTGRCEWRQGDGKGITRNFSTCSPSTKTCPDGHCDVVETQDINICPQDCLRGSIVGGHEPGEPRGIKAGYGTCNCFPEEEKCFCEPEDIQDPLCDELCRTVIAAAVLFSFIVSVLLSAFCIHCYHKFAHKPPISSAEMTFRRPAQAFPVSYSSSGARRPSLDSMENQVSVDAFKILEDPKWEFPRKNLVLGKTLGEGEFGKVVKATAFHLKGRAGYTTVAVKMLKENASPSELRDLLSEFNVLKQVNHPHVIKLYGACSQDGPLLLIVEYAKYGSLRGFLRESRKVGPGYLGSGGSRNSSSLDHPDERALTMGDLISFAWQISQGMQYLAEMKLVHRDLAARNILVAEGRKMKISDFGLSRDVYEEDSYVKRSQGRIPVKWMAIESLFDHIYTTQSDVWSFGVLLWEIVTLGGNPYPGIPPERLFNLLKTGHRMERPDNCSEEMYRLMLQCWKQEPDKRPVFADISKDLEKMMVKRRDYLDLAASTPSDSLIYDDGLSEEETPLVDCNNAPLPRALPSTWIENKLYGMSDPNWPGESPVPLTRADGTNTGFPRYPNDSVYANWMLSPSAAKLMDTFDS
Excerpt: 2.2 Experimental Reagents: • RET enzyme was purchased from Carna Company, and the article number was 08-159; • RET M918T enzyme was purchased from Carna Company, and the article number was 08-508; • KIF5B-RET was purchased from SignalChem Company, the article number was R02-19FG-05; • CCDC6-RET was purchased from SignalChem Company, the article number was R02-19BG-05; • RET V804M enzyme was purchased from Thermofisher Company, and the article number was PV6223; • RET V804L enzyme was purchased from Thermofisher Company, and the article number was PV4397; • HTRF KinEASE-TK kit was purchased from Cisbio Company, and the article number was 62TK0PEC; • ATP was purchased from Thermofisher Company, and the article number was PV3227; • 384-well plate was purchased from PerkinElmer Company, and the article number was 6007290.
In this experiment, a homogeneous time-resolved fluorescence (HTRF) method was used for the detection of compounds on RET kinase activity.

KDR kinase = biological target: T3, KDR kinase (Homo sapiens, UniProt P35968); assay: HTRF kinase activity inhibition, KDR; format: biochemical; details: for IC50: HTRF, ATP at Km; for Ratio (KDR/RET): KDR IC50 / RET IC50
T3 construct: purchased Carna 08-191
T3 sequence (P35968 20-1356): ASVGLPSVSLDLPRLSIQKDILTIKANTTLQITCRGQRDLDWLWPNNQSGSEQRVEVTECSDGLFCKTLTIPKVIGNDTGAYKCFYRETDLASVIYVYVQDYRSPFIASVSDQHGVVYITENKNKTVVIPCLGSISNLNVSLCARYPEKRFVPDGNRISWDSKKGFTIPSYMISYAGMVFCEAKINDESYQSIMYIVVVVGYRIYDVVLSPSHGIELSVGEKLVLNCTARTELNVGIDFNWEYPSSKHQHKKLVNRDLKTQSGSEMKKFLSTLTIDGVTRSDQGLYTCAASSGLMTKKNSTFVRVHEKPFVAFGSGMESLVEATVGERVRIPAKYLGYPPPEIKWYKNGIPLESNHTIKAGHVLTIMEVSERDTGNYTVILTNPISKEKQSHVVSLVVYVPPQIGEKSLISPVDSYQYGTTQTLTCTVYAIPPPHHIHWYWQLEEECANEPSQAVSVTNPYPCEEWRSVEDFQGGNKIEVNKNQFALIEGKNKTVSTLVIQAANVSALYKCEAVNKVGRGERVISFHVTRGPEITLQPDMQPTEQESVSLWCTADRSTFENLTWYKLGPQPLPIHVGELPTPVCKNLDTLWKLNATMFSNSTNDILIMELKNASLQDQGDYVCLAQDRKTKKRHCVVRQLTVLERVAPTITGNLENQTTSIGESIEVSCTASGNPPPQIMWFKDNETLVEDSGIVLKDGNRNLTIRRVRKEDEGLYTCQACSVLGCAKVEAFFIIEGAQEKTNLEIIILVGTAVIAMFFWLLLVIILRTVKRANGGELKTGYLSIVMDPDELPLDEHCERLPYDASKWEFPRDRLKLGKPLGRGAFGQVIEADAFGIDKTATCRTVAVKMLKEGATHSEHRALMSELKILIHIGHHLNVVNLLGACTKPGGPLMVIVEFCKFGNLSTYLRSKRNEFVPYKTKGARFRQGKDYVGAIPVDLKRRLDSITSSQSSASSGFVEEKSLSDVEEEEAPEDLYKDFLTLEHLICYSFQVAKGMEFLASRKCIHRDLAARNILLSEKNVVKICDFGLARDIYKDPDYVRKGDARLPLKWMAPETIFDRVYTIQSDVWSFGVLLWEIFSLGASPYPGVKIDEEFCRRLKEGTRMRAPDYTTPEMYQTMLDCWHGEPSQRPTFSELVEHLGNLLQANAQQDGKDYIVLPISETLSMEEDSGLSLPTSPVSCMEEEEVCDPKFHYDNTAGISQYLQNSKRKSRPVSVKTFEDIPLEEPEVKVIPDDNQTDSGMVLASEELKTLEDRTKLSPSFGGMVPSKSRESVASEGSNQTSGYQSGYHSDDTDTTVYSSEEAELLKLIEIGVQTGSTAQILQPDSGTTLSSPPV
Excerpt: 2.2 Experimental Reagents: • KDR kinase was purchased from Carna Company, and the article number was 08-191; • HTRF KinEASE-TK kit was purchased from Cisbio Company, and the article number was 62TK0PEC; • ATP was purchased from Thermofisher Company, and the article number was PV3227; • 384-well plate was purchased from PerkinElmer Company, and the article number was 6007290.
In this experiment, the homogeneous time-resolved fluorescence (HTRF) method was used for the detection of compounds on KDR kinase activity.

[1] = Balb/C mouse pharmacokinetics, oral 5 mg/kg; format: in vivo, Balb/C mice; details: male, p.o. 5 mg/kg, plasma; for MRT: read-out: Average residence time MRT; for Cmax: read-out: Blood concentration Cmax; for AUC(0-t): read-out: Curve area AUC0-t; for AUC(0-inf): read-out: Curve area AUC0-∞; for half-life: read-out: Half-life t1/2 (converted); for Tmax: read-out: Peak time tmax
Method: The pharmacokinetic behavior of the following compound embodiments, administered orally at a dose of 5 mg/kg in plasma in mice, was studied using Balb/C mice as test animals.
Balb/C Mouse 6/embodiment, male, Shanghai Jiesijie Laboratory Animal Co., Ltd, Animal Production License No. (SCXK (Shanghai) 2013-0006 N0.311620400001794).
Balb/C mice, males; p.o. after overnight fasting, respectively, at a dose of 5 mg/kg, administered in a volume of 10 mL/kg.
0.5% CMC-Na (1% Tween80) was dissolved by ultrasound, and prepared into clear solution or uniform suspension.
Before and after administration, 0.1 mL of blood was collected from mice at 0, 0.5, 1, 2, 4, 6, 8 and 24 hours by orbital collection, placed in EDTA-K2 tubes, centrifuged at 6000 rpm at 4° C. for 6 minutes to separate plasma, and stored at −80° C.
2.5 Sample Handling: • 1) 40 μL of plasma sample was precipitated by adding 160 μL of acetonitrile, mixed and centrifuged at 3500×g for 5-20 minutes. • 2) 100 μL of the supernatant solution after treatment was taken to analyze the concentration of the test compound by LC/MS/MS.
2.6 Liquid Phase Analysis • Liquid phase conditions: Shimadzu LC-20AD pump • Mass spectrometry conditions: AB Sciex API 4000 mass spectrometer • Chromatographic column: phenomenex Gemiu 5 μM C18 50×4.6 mm • Mobile phase: Liquid A was 0.1% formic acid aqueous solution, liquid B was acetonitrile • Flow rate: 0.8 mL/min • Elution time: 0-4.0 minutes, the eluent was as follows:
The main pharmacokinetic parameters were calculated by WinNonlin 6.1 and the results of the mouse pharmacokinetic experiments were shown in Table 13 below.

[2] = system: TT cells (MTC, RET C634W); assay: Inhibition of proliferation of TT cells (CellTiter-Glo, 72 h); format: cell-based; details: Homo sapiens
Method: TT cells were purchased from the cell bank of the Chinese Academy of Sciences.
When TT cells were cultured to the appropriate fusion level, TT cells were collected, and the cells were adjusted to the appropriate cell concentration using complete medium, and the cell suspension was spread in a 96-well plate, 90 μL per well, and placed to the wall of a 37° C., 5% CO2 incubator overnight; and compound solutions of different concentrations were prepared using DMSO and culture medium; and a solvent control was set, the compound solution was added to a 96-well plate, 10 μL per well, and placed to the wall of a 37° C., 5% CO2 incubator for 72 hours; CellTiter-Glo solution was added thereto and the mixture was mixed well by shaking, incubated for 10 minutes in the dark, and read by BioTek Synergy H1 microplate reader.
The IC50 values were obtained by using luminescence signal values to calculate the inhibition rate, the concentration and the inhibition rate were fitted to a nonlinear regression curve using Graphpad Prism software.

SMILES: COc1ccc(CN2C3CC2CN(c2ccc(-c4cc(OCC5(C#N)CCOCC5)cn5ncc(C#N)c45)cn2)C3)cn1 [Embodiment 59, 6-((4-Cyanotetrahydro-2H-pyran-4-yl)methoxy)-4-(6-(6-((6-methoxypyridin-3-yl)methyl)-3,6-diazabicyclo[3.1.1]heptan-3-yl)pyridin-3-yl)pyrazolo[1,5-a]pyridine-3-carbonitrile]
IC50 (Ba/F3 KIF5B-RET cells): 34 nM | IC50 (RET kinase): 0.58 nM | IC50 (KDR kinase): 184 nM | Ratio (KDR/RET) (KDR kinase): 317 | MRT [1]: 4.27 h | Cmax [1]: 1330 ng/mL | AUC(0-t) [1]: 7340 ng·h/mL | AUC(0-inf) [1]: 7370 ng·h/mL | half-life [1]: 2.34 h | Tmax [1]: 0.5 h

SMILES: COc1ccc(CN2C3CC2CN(c2ccc(-c4cc(N5CC6(C5)CC(C)(O)C6)cn5ncc(C#N)c45)cn2)C3)cn1 [Embodiment 32, 6-(6-Hydroxy-6-methyl-2-azaspiro[3.3]heptan-2-yl)-4-(6-(6-((6-methoxypyridin-3-yl)methyl)-3,6-diazabicyclo[3.1.1]heptan-3-yl)pyridin-3-yl)pyrazolo[1,5-a]pyridine-3-carbonitrile]
IC50 (RET kinase): 0.49 nM | IC50 [2]: 2.07 nM | IC50 (KDR kinase): 1.8 nM | Ratio (KDR/RET) (KDR kinase): 4

SMILES: COc1ccc(CN2C3CC2CN(c2ccc(-c4cc(OCC5(C#N)CC5)cn5ncc(C#N)c45)cn2)C3)cn1 [Embodiment 27, 6-((1-Cyanocyclopropyl)methoxy)-4-(6-(6-((6-methoxypyridin-3-yl)methyl)-3,6-diazabicyclo[3.1.1]heptan-3-yl)pyridin-3-yl)pyrazolo[1,5-a]pyridine-3-carbonitrile]
IC50 (Ba/F3 KIF5B-RET cells): 15.9 nM | IC50 (RET kinase): 0.32 nM | IC50 (KDR kinase): 88 nM | Ratio (KDR/RET) (KDR kinase): 280

SMILES: COc1ccc(CN2C3CC2CN(c2ccc(-c4cc(C#CC(O)C5CC5)cn5ncc(C#N)c45)cn2)C3)cn1 (stereo not drawn) [Embodiment 19, 6-(3-Cyclopropyl-3-hydroxyprop-1-yn-1-yl)-4-(6-(6-((6-methoxypyridin-3-yl)methyl)-3,6-diazabicyclo[3.1.1]heptan-3-yl)pyridin-3-yl)pyrazolo[1,5-a]pyridine-3-carbonitrile]
IC50 (Ba/F3 KIF5B-RET cells): 27.8 nM

SMILES: COc1ncc(CN2C3CC2CN(c2ccc(-c4cc(C#C[C@@H](C)O)cn5ncc(C#N)c45)cn2)C3)cc1F [Embodiment 68, 4-(6-(6-((5-Fluoro-6-methoxypyridin-3-yl)methyl)-3,6-diazabicyclo[3.1.1]heptan-3-yl)pyridin-3-yl)-6-((R)-3-hydroxybut-1-yn-1-yl)pyrazolo[1,5-a]pyridine-3-carbonitrile]
IC50 (Ba/F3 KIF5B-RET cells): 26.3 nM | IC50 (RET kinase): 0.44 nM | IC50 (KDR kinase): 18.9 nM | Ratio (KDR/RET) (KDR kinase): 43 | MRT [1]: 3.47 h | Cmax [1]: 1700 ng/mL | AUC(0-t) [1]: 7210 ng·h/mL | AUC(0-inf) [1]: 7220 ng·h/mL | half-life [1]: 1.73 h | Tmax [1]: 0.5 h

SMILES: COCC(C)(O)C#Cc1cc(-c2ccc(N3CC4CC(C3)N4Cc3cnc(OC)c(F)c3)nc2)c2c(C#N)cnn2c1 (stereo not drawn) [Embodiment 61, 4-(6-(6-((5-Fluoro-6-methoxypyridin-3-yl)methyl)-3,6-diazabicyclo[3.1.1]heptan-3-yl)pyridin-3-yl)-6-(3-hydroxy-4-methoxy-3-methylbut-1-yn-1-yl)pyrazolo[1,5-a]pyridine-3-carbonitrile]
IC50 (Ba/F3 KIF5B-RET cells): 16.8 nM | IC50 (RET kinase): 0.35 nM | IC50 (KDR kinase): 11.2 nM | Ratio (KDR/RET) (KDR kinase): 32

SMILES: COc1ccc(CN2C3CC2CN(c2ccc(-c4cc(OCC56CC(O)(C5)C6)cn5ncc(C#N)c45)cn2)C3)cn1 [Embodiment 47, 6-((3-Hydroxybicyclo[1.1.1]pentan-1-yl)methoxy)-4-(6-(6-((6-methoxypyridin-3-yl)methyl)-3,6-diazabicyclo[3.1.1]heptan-3-yl)pyridin-3-yl)pyrazolo[1,5-a]pyridine-3-carbonitrile]
IC50 (RET kinase): 0.4 nM | IC50 [2]: 13.3 nM | IC50 (KDR kinase): 176 nM | Ratio (KDR/RET) (KDR kinase): 438

SMILES: [2H]C([2H])([2H])Oc1ccc(CN2C3CC2CN(c2ccc(-c4cc(N5CC(C(C)(C)O)C5)cn5ncc(C#N)c45)cn2)C3)cn1 [Embodiment 41, 6-(3-(2-Hydroxypropan-2-yl)azetidin-1-yl)-4-(6-(6-((6-(methoxy-d3)pyridin-3-yl)methyl)-3,6-diazabicyclo[3.1.1]heptan-3-yl)pyridin-3-yl)pyrazolo[1,5-a]pyridine-3-carbonitrile]
IC50 (RET kinase): 0.4 nM | IC50 [2]: 9.45 nM | IC50 (KDR kinase): 11 nM | Ratio (KDR/RET) (KDR kinase): 27

IC50 (RET kinase): 1.54 nM | IC50 (KDR kinase): 204 nM | Ratio (KDR/RET) (KDR kinase): 133
SMILES: CC1(NC(=O)c2ncccc2Cl)CCN(c2ccc(-c3cc(OCC4(N)CC4)cn4ncc(C#N)c34)cn2)CC1 [Embodiment 91, N-(1-(5-(6-((1-aminocyclopropyl)methoxy)-3-cyanopyrazolo[1,5-a]pyridin-4-yl)pyridin-2-yl)-4-methylpiperidin-4-yl)-3-chloropicolinamide]
IC50 [2]: 29.6 nM

SMILES: COc1ccc(CN2C3CC2CN(c2ccc(-c4cc(C#CCC(C)(C)O)cn5ncc(C#N)c45)cn2)C3)cn1 [Embodiment 48, 6-(4-Hydroxy-4-methylpent-1-yn-1-yl)-4-(6-(6-((6-methoxypyridin-3-yl)methyl)-3,6-diazabicyclo[3.1.1]heptan-3-yl)pyridin-3-yl)pyrazolo[1,5-a]pyridine-3-carbonitrile]
IC50 (RET kinase): 0.42 nM | IC50 [2]: 19.6 nM | IC50 (KDR kinase): 13 nM | Ratio (KDR/RET) (KDR kinase): 30

SMILES: COc1ccc(CN2C3CC2CN(c2ccc(-c4cc(OCC5CCS(=N)(=O)CC5)cn5ncc(C#N)c45)cn2)C3)cn1 (stereo not drawn) [Embodiment 54, 6-((1-Imino-1-hydroxyhexahydro-1l6-thiopyran-4-yl)methoxy)-4-(6-(6-((6-methoxypyridin-3-yl)methyl)-3,6-diazabicyclo[3.1.1]heptan-3-yl)pyridin-3-yl)pyrazolo[1,5-a]pyridine-3-carbonitrile]
IC50 (RET kinase): 0.34 nM | IC50 [2]: 9 nM | IC50 (KDR kinase): 9 nM | Ratio (KDR/RET) (KDR kinase): 26

SMILES: COc1ccc(CN2C3CC2CN(c2ccc(-c4cc(C#C[C@H](C)O)cn5ncc(C#N)c45)cn2)C3)cn1 [Embodiment 21, 6-((S)-3-Hydroxybut-1-yn-1-yl)-4-(6-(6-((6-methoxypyridin-3-yl)methyl)-3,6-diazabicyclo[3.1.1]heptan-3-yl)pyridin-3-yl)pyrazolo[1,5-a]pyridine-3-carbonitrile]
IC50 (RET kinase): 0.41 nM | IC50 [2]: 18.1 nM | IC50 (KDR kinase): 9.4 nM | Ratio (KDR/RET) (KDR kinase): 23
